Test results: article PMC4138103 (PLoS ONE, 2014)
Read-outs that look alike come from different tables or passages of the source.

Tested on: Sprague-Dawley rats
Assay: Bone geometry and densitometry (pQCT of tibia)
Format: in vivo, Rattus norvegicus
Design: key to Dose response: Densitometry, diaphysis, Cortical area / Dose response: Densitometry, metaphysis, Trabecular area: D: significant dose response (for results, see Table 2); T: significant trend
Details: for CED, Cortical area of diaphysis / CED-L, Cortical area of diaphysis: M; for Emax: Rattus norvegicus
Procedure: Hind limbs were collected and frozen at −20°C. Dissected right tibias were cleaned from soft tissue and stored in Ringer solution at −20°C until analysis. The length of each bone was measured using an electronic sliding caliper to the nearest 0.01 mm (IP65, Sylvac SA, Crissier, Switzerland). […] The thresholds for defining trabecular bone were 280 and 400 mg/cm^3, while cortical bone was defined above a threshold of 710 mg/cm^3. The voxel size was 0.07 mm.
Data were also analyzed using the BMD method, which is based on dose-response modeling of the full data set using a nested family of exponential and Hill models. The analyses were done on data of males and females combined, using sex as a covariate. […] In that case, different Critical Effect Doses (CEDs) and CEDs at the lowest bound of the confidence interval (CED-L) were generated for each sex. If no difference between sexes is detected, a CED and CED-Ls for the combined data is generated. However, this was also done if the curve fits are close, and separate analyses for males and females were then performed manually. CEDs and CED-Ls were calculated at the predefined Critical Effect Size (CES) of 5% (EFSA standard) or 10%.

[1] = F, CES 5%, model E2, adipose tissue concentration based
[2] = F, CES 10%, model E2, adipose tissue concentration based
[3] = CES 5%, model E2, adipose tissue concentration based
[4] = CES 10%, model E2, adipose tissue concentration based
[5] = females, CES 5%, total dose based
[6] = males, CES 5%, total dose based
[7] = tibia, females, total dose 3 mg/kg bw
[8] = tibia, females, total dose 10 mg/kg bw
[9] = tibia, females, total dose 30 mg/kg bw
[10] = tibia, females, total dose 100 mg/kg bw
[11] = tibia, females, total dose 300 mg/kg bw
[12] = tibia, females, total dose 1000 mg/kg bw
[13] = tibia, females, total dose 1700 mg/kg bw
[14] = tibia, males, total dose 3 mg/kg bw
[15] = tibia, males, total dose 10 mg/kg bw
[16] = tibia, males, total dose 30 mg/kg bw
[17] = tibia, males, total dose 100 mg/kg bw
[18] = tibia, males, total dose 300 mg/kg bw
[19] = tibia, males, total dose 1000 mg/kg bw
[20] = tibia, males, total dose 1700 mg/kg bw

Clc1cc(Cl)c(-c2cc(Cl)c(Cl)c(Cl)c2Cl)cc1Cl [PCB 180, 2,2′,3′,4,4′,5,5′-heptachlorobiphenyl]
CED, Trabecular area of metaphysis [1]: 6230 µg/g lipid
CED-L, Trabecular area of metaphysis [1]: 3714 µg/g lipid
CED, Trabecular area of metaphysis [2]: 12200 µg/g lipid
CED-L, Trabecular area of metaphysis [2]: 7255 µg/g lipid
CED, Cortical area of diaphysis [3]: 5930 µg/g lipid
CED-L, Cortical area of diaphysis [3]: 3506 µg/g lipid
CED, Cortical area of diaphysis [4]: 12200 µg/g lipid
CED-L, Cortical area of diaphysis [4]: 7202 µg/g lipid
Emax (F, model E2, controls vs high dose according to the fitted model, read-out: Maximum response, Trabecular area of metaphysis): 9.25%
Emax (females, controls vs high dose, fitted model, read-out: Trabecular area of metaphysis, Maximum response): 8.2%
Emax (males, controls vs high dose, fitted model, read-out: Cortical area of diaphysis, Maximum response): -6.1%
Emax (model E2, controls vs high dose according to the fitted model, read-out: Maximum response, Cortical area of diaphysis): -6.19%
Trabecular area of metaphysis, CED [5]: 1040 mg/kg bw
Trabecular area of metaphysis, CED-L [5]: 602 mg/kg bw
Trabecular area of metaphysis, CED (females, adipose tissue concentration based): 6230 µg/g lipid
Trabecular area of metaphysis, Maximum response (females, controls vs high dose, fitted model): 8.30%
Cortical area of diaphysis, CED [6]: 1380 mg/kg bw
Cortical area of diaphysis, CED-L [6]: 820 mg/kg bw
Cortical area of tibial diaphysis, CED (males, adipose tissue concentration based): 5930 µg/g lipid
Densitometry, diaphysis: Cortical area [7]: 3.25 mm2
Densitometry, diaphysis: Cortical density [7]: 1315 mg/cm3
Densitometry, diaphysis: Cortical thickness [7]: 0.49 mm
Densitometry, diaphysis: Endosteal circumference [7]: 5.06 mm
Densitometry, diaphysis: Periosteal circumference [7]: 8.15 mm
Densitometry, metaphysis: Total density [7]: 570 mg/cm3
Densitometry, metaphysis: Trabecular area [7]: 5.33 mm2
Densitometry, metaphysis: Trabecular density [7]: 195 mg/cm3
Densitometry, diaphysis: Cortical area [8]: 3.22 mm2
Densitometry, diaphysis: Cortical density [8]: 1312 mg/cm3
Densitometry, diaphysis: Cortical thickness [8]: 0.49 mm
Densitometry, diaphysis: Endosteal circumference [8]: 5.06 mm
Densitometry, diaphysis: Periosteal circumference [8]: 8.12 mm
Densitometry, metaphysis: Total density [8]: 571 mg/cm3
Densitometry, metaphysis: Trabecular area [8]: 5.37 mm2
Densitometry, metaphysis: Trabecular density [8]: 199 mg/cm3
Densitometry, diaphysis: Cortical area [9]: 3.23 mm2
Densitometry, diaphysis: Cortical density [9]: 1311 mg/cm3
Densitometry, diaphysis: Cortical thickness [9]: 0.49 mm
Densitometry, diaphysis: Endosteal circumference [9]: 5.08 mm
Densitometry, diaphysis: Periosteal circumference [9]: 8.14 mm
Densitometry, metaphysis: Total density [9]: 569 mg/cm3
Densitometry, metaphysis: Trabecular area [9]: 5.52 mm2
Densitometry, metaphysis: Trabecular density [9]: 211 mg/cm3
Densitometry, diaphysis: Cortical area [10]: 3.21 mm2
Densitometry, diaphysis: Cortical density [10]: 1307 mg/cm3
Densitometry, diaphysis: Cortical thickness [10]: 0.49 mm
Densitometry, diaphysis: Endosteal circumference [10]: 4.95 mm
Densitometry, diaphysis: Periosteal circumference [10]: 8.06 mm
Densitometry, metaphysis: Total density [10]: 586 mg/cm3
Densitometry, metaphysis: Trabecular area [10]: 4.99 mm2
Densitometry, metaphysis: Trabecular density [10]: 209 mg/cm3
Densitometry, diaphysis: Cortical area [11]: 3.26 mm2
Densitometry, diaphysis: Cortical density [11]: 1310 mg/cm3
Densitometry, diaphysis: Cortical thickness [11]: 0.50 mm
Densitometry, diaphysis: Endosteal circumference [11]: 5.01 mm
Densitometry, diaphysis: Periosteal circumference [11]: 8.13 mm
Densitometry, metaphysis: Total density [11]: 581 mg/cm3
Densitometry, metaphysis: Trabecular area [11]: 5.25 mm2
Densitometry, metaphysis: Trabecular density [11]: 214 mg/cm3
Densitometry, diaphysis: Cortical area [12]: 3.23 mm2
Densitometry, diaphysis: Cortical density [12]: 1309 mg/cm3
Densitometry, diaphysis: Cortical thickness [12]: 0.49 mm
Densitometry, diaphysis: Endosteal circumference [12]: 4.97 mm
Densitometry, diaphysis: Periosteal circumference [12]: 8.08 mm
Densitometry, metaphysis: Total density [12]: 574 mg/cm3
Densitometry, metaphysis: Trabecular area [12]: 5.41 mm2
Densitometry, metaphysis: Trabecular density [12]: 209 mg/cm3
Densitometry, diaphysis: Cortical area [13]: 3.10 mm2
Densitometry, diaphysis: Cortical density [13]: 1307 mg/cm3
Densitometry, diaphysis: Cortical thickness [13]: 0.48 mm
Densitometry, diaphysis: Endosteal circumference [13]: 5.01 mm
Densitometry, diaphysis: Periosteal circumference [13]: 8.00 mm
Densitometry, metaphysis: Total density [13]: 562 mg/cm3
Densitometry, metaphysis: Trabecular area [13]: 5.84 mm2
Densitometry, metaphysis: Trabecular density [13]: 221 mg/cm3
Dose response: Densitometry, metaphysis, Trabecular area (tibia, females, total doses 0-1700 mg/kg bw): D
Densitometry, diaphysis: Cortical area [14]: 4.04 mm2
Densitometry, diaphysis: Cortical density [14]: 1321 mg/cm3
Densitometry, diaphysis: Cortical thickness [14]: 0.56 mm
Densitometry, diaphysis: Endosteal circumference [14]: 5.47 mm
Densitometry, diaphysis: Periosteal circumference [14]: 8.98 mm
Densitometry, metaphysis: Total density [14]: 493 mg/cm3
Densitometry, metaphysis: Trabecular area [14]: 8.42 mm2
Densitometry, metaphysis: Trabecular density [14]: 174 mg/cm3
Densitometry, diaphysis: Cortical area [15]: 3.95 mm2
Densitometry, diaphysis: Cortical density [15]: 1314 mg/cm3
Densitometry, diaphysis: Cortical thickness [15]: 0.54 mm
Densitometry, diaphysis: Endosteal circumference [15]: 5.55 mm
Densitometry, diaphysis: Periosteal circumference [15]: 8.97 mm
Densitometry, metaphysis: Total density [15]: 465 mg/cm3
Densitometry, metaphysis: Trabecular area [15]: 8.96 mm2
Densitometry, metaphysis: Trabecular density [15]: 139 mg/cm3
Densitometry, diaphysis: Cortical area [16]: 4.08 mm2
Densitometry, diaphysis: Cortical density [16]: 1316 mg/cm3
Densitometry, diaphysis: Cortical thickness [16]: 0.56 mm
Densitometry, diaphysis: Endosteal circumference [16]: 5.58 mm
Densitometry, diaphysis: Periosteal circumference [16]: 9.08 mm
Densitometry, metaphysis: Total density [16]: 485 mg/cm3
Densitometry, metaphysis: Trabecular area [16]: 8.63 mm2
Densitometry, metaphysis: Trabecular density [16]: 165 mg/cm3
Densitometry, diaphysis: Cortical area [17]: 4.06 mm2
Densitometry, diaphysis: Cortical density [17]: 1300 mg/cm3
Densitometry, diaphysis: Cortical thickness [17]: 0.55 mm
Densitometry, diaphysis: Endosteal circumference [17]: 5.70 mm
Densitometry, diaphysis: Periosteal circumference [17]: 9.14 mm
Densitometry, metaphysis: Total density [17]: 458 mg/cm3
Densitometry, metaphysis: Trabecular area [17]: 9.57 mm2
Densitometry, metaphysis: Trabecular density [17]: 159 mg/cm3
Densitometry, diaphysis: Cortical area [18]: 4.06 mm2
Densitometry, diaphysis: Cortical density [18]: 1313 mg/cm3
Densitometry, diaphysis: Cortical thickness [18]: 0.56 mm
Densitometry, diaphysis: Endosteal circumference [18]: 5.53 mm
Densitometry, diaphysis: Periosteal circumference [18]: 9.03 mm
Densitometry, metaphysis: Total density [18]: 474 mg/cm3
Densitometry, metaphysis: Trabecular area [18]: 8.85 mm2
Densitometry, metaphysis: Trabecular density [18]: 150 mg/cm3
Densitometry, diaphysis: Cortical area [19]: 3.88 mm2
Densitometry, diaphysis: Cortical density [19]: 1306 mg/cm3
Densitometry, diaphysis: Cortical thickness [19]: 0.54 mm
Densitometry, diaphysis: Endosteal circumference [19]: 5.51 mm
Densitometry, diaphysis: Periosteal circumference [19]: 8.90 mm
Densitometry, metaphysis: Total density [19]: 468 mg/cm3
Densitometry, metaphysis: Trabecular area [19]: 8.69 mm2
Densitometry, metaphysis: Trabecular density [19]: 154 mg/cm3
Densitometry, diaphysis: Cortical area [20]: 3.80 mm2
Densitometry, diaphysis: Cortical density [20]: 1315 mg/cm3
Densitometry, diaphysis: Cortical thickness [20]: 0.53 mm
Densitometry, diaphysis: Endosteal circumference [20]: 5.54 mm
Densitometry, diaphysis: Periosteal circumference [20]: 8.86 mm
Densitometry, metaphysis: Total density [20]: 483 mg/cm3
Densitometry, metaphysis: Trabecular area [20]: 8.64 mm2
Densitometry, metaphysis: Trabecular density [20]: 164 mg/cm3
Dose response: Densitometry, diaphysis, Cortical area (tibia, males, total doses 0-1700 mg/kg bw): D
